Values quoted from earlier work in patent publication US4350696A, “Imidazole derivatives, process for their preparation and pharmaceutical compositions thereof” (Pfizer Inc., priority 1980, dated 1982).

Experiments:
[1] = test system: human blood platelet aggregation; settings: in vitro, a variety of aggregating agents
[2] = test system: platelet clumping and embolisation in the lungs; settings: rabbit, intravenous injection of arachidonic acid
aggregation of platelets = settings: rats in vivo, abdominal aorta loop

| Compound | inhibitory activity against platelet aggregation [1] | protection from lethal effect of intravenous arachidonic acid [2] | prevention of platelet aggregation in extra corporeal loop (aggregation of platelets) |
| --- | --- | --- | --- |
| CC(=O)Oc1ccccc1C(=O)O [aspirin] | show inhibitory activity | protect the rabbit from the lethal effect of the injection | – |
| O=C1C(CC[S+]([O-])c2ccccc2)C(=O)N(c2ccccc2)N1c1ccccc1 (stereo not shown) [sulphinpyrazone] | show inhibitory activity | – | prevent the aggregation of platelets |
